Measured values reported in ChEMBL document CHEMBL1201862, “PubChem BioAssay data set” (2004).
Values belong to the molecule of their own block, whether it stands above or below them. Active and inactive are the calls of the source.

Assays:
[1] = target: T1, Bcl-2-related protein A1 (Mus musculus, UniProt Q07440); experiment: Bfl-1 binding inhibitors, SAR follow-up, biochemical, fluorescence polarization (AID 1070)
T1 sequence (Q07440 whole entry): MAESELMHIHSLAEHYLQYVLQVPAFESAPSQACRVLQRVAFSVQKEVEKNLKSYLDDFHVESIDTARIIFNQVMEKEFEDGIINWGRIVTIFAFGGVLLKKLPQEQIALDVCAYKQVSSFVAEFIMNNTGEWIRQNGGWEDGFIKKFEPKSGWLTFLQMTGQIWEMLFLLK

[2] = target: Glyceraldehyde-3-phosphate dehydrogenase (Homo sapiens, UniProt P04406)
[3] = target: T1, Bcl-2-related protein A1; experiment: small-molecule antagonists of Bfl-1/BH3 interaction – biochemical, TR-FRET, mouse Bfl-1, confirmation (AID 621);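 note: TR-FRET binding of GST-Bfl-1 to FITC-labelled Bid peptide via terbium antibody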
[4] = target: T2, Glutathione-S-transferase (Schistosoma japonicum, UniProt Q26513); experiment: GST-antibody interaction or FRET quenching – biochemical, TR-FRET, artefact control for Vif-APOBEC3G degradation inhibitor project, dose response (AID 1117362); assay type: functional
T2 sequence (Q26513 whole entry): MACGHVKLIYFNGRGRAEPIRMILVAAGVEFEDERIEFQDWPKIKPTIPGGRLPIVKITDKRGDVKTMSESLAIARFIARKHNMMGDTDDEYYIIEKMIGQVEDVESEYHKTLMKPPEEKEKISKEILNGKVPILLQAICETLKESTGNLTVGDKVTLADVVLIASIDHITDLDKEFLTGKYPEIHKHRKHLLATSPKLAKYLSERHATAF

[5] = target: T3, Rac GTPase-activating protein 1 (Homo sapiens, UniProt Q9H0H5); experiment: blockers of MgcRacGAP-driven Rac1 GTP hydrolysis – biochemical, ADP Hunter fluorescence, primary and confirmatory, confirmation (AID 624330); assay type: functional
T3 sequence (Q9H0H5 whole entry): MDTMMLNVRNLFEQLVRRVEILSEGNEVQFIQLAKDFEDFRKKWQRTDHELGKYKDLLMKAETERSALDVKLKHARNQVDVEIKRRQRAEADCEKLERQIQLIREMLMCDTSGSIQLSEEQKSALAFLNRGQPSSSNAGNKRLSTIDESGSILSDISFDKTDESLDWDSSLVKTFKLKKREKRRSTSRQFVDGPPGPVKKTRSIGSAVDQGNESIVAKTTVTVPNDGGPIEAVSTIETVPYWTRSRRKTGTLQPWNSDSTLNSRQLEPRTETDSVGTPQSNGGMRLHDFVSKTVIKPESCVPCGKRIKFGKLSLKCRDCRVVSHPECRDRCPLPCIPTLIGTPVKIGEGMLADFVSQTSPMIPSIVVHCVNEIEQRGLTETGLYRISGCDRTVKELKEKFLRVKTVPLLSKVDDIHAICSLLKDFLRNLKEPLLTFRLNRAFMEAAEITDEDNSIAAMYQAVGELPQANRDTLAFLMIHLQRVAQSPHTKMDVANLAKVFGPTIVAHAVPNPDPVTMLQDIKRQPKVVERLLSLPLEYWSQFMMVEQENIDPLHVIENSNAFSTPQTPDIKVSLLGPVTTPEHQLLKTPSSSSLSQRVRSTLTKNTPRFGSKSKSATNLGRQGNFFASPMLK

[6] = target: NAD-dependent protein deacylase sirtuin-5, mitochondrial (Homo sapiens, UniProt Q9NXA8); experiment: sirtuin-5 deacylation blockers, concentration series – biochemical, fluorescence imaging, cherry-pick, set 5, dose response (AID 720591);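 note: desuccinylation of succinyl peptide AMC substrate read as fluorescence after trypsin release; potency of inhibitors that lower fluorescence and may act on trypsin instead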
[7] = target: Glucose-6-phosphate 1-dehydrogenase (Homo sapiens, UniProt P11413); experiment: inhibition of Homo sapiens G6PD, dose series – biochemical, fluorescence, selectivity assay for P. falciparum G6PD inhibitor project, dose response (AID 504792); assay type: functional
[8] = target: Large T antigen (Simian virus 40, UniProt P03070); assay type: functional, Betapolyomavirus macacae;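 note: Confirmatory-stage PubChem screen for compounds that inhibit SV40 T antigen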
[9] = target: T4, Sentrin-specific protease 7 (Homo sapiens, UniProt Q9BQF6); assay type: functional;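 note: Luminescence-based dose-response confirmation of ultra-high-throughput screening hits, measuring inhibition of SENP7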
T4 sequence (Q9BQF6 whole entry): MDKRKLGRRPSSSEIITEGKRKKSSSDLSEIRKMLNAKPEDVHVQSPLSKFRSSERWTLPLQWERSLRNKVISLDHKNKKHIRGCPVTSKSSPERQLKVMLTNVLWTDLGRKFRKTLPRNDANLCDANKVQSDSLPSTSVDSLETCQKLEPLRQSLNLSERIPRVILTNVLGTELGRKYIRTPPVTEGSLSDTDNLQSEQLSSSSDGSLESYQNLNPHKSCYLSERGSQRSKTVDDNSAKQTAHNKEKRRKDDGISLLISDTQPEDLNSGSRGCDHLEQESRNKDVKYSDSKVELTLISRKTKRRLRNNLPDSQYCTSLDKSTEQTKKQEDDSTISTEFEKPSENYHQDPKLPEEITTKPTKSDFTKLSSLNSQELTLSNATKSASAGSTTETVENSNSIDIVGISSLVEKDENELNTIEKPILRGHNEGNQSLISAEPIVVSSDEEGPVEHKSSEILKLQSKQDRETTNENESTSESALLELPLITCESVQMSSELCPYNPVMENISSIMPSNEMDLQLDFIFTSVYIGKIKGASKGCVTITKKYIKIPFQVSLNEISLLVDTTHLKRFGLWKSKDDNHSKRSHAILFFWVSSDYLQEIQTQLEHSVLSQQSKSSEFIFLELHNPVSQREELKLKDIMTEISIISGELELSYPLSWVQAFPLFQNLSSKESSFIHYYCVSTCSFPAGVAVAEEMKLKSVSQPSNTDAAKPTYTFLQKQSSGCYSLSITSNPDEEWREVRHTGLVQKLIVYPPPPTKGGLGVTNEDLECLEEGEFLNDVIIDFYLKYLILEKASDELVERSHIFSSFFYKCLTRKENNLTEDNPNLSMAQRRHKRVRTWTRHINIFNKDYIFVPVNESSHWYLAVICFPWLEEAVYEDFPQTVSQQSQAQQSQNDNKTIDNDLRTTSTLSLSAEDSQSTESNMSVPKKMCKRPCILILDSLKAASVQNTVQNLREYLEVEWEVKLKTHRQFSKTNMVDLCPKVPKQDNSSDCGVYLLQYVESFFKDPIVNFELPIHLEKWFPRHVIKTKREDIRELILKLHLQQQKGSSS

[10] = target: T5, Sentrin-specific protease 6 (Homo sapiens, UniProt Q9GZR1); assay type: functional;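 note: Luminescence-based dose-response confirmatory assay of SENP6 inhibition, following up an ultra-high-throughput screen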
T5 sequence (Q9GZR1 whole entry): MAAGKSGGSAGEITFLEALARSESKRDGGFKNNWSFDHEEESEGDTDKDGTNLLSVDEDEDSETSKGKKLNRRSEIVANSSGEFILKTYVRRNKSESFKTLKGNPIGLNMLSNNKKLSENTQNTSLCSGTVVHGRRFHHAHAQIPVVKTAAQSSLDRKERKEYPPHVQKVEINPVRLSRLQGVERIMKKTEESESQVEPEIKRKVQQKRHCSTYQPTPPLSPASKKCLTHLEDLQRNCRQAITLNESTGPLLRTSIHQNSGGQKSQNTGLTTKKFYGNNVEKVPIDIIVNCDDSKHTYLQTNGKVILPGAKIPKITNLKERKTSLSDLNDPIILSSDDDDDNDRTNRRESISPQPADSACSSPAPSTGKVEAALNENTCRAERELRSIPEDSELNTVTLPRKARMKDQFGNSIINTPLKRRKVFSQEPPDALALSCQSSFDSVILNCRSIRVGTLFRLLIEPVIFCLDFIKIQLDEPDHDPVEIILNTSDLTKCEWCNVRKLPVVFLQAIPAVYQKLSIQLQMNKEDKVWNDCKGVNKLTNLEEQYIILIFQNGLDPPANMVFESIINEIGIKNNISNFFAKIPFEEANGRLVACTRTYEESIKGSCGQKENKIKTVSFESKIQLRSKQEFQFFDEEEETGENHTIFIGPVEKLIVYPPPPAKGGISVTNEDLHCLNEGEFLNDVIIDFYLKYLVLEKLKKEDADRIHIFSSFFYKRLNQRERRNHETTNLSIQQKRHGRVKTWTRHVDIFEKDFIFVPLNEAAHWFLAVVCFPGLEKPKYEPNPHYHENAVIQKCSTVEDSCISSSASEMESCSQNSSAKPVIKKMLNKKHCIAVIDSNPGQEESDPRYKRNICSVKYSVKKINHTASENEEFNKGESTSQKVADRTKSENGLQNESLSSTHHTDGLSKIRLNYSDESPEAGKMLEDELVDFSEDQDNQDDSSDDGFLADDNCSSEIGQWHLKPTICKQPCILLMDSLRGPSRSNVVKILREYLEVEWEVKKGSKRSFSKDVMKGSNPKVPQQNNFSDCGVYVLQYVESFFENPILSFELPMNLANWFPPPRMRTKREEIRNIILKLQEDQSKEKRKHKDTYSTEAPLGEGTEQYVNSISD

[11] = target: T6, Sentrin-specific protease 8 (Homo sapiens, UniProt Q96LD8); assay type: functional;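 note: luminescence read-out of SENP8 inhibition, dose-response confirmation following an ultra-high-throughput screen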
T6 sequence (Q96LD8 whole entry): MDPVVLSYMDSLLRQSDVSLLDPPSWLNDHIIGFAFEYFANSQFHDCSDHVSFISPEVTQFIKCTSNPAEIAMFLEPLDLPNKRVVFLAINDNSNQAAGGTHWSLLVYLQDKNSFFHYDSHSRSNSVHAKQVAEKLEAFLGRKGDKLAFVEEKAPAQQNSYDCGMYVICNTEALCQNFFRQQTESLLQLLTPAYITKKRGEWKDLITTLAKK

[12] = target: T7, Caspase-3 (Homo sapiens, UniProt P42574); assay type: functional;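 note: Dose-response selectivity test against caspase-3 for candidate inhibitors of sentrin-specific proteases (SENPs)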
T7 sequence (P42574 whole entry): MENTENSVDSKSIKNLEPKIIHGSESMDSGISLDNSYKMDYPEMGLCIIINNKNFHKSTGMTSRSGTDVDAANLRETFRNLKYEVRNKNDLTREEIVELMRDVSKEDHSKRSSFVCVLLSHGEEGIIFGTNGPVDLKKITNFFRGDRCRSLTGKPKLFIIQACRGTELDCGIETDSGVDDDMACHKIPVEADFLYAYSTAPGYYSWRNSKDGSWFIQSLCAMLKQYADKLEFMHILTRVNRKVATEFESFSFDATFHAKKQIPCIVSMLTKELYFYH

[13] = target: Mitogen-activated protein kinase 10 (Homo sapiens, UniProt P53779); experiment: Dose response biochemical screening assay for inhibitors of c-Jun N-Terminal Kinase 3 (JNK3). [Related pubchem assays: 746 ]
[14] = target: T8, Caspase-6 (Homo sapiens, UniProt P55212); experiment: inhibition of CASP6 peptide cleavage – biochemical, VEID-R110 fluorescence, cherry-pick, dose response (AID 720632)
T8 sequence (P55212 whole entry): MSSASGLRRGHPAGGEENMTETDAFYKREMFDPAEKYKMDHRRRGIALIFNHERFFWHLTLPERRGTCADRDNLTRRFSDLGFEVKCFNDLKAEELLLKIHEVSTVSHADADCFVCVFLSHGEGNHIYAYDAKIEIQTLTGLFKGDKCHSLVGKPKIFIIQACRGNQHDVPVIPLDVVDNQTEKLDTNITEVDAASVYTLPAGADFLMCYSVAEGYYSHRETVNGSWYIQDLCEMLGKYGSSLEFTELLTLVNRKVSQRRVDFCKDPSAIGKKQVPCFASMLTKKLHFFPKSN

[15] = target: E3 ubiquitin-protein ligase Mdm2 (Homo sapiens, UniProt Q00987); experiment: MDM2-luc reporter signal enhancers, multi-concentration potency testing, MDM2 ubiquitin-protein ligase inhibitor program, whole-cell format, luminescence detection, 384-well microplate (AID 1394); assay type: functional;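 note: MDM2 E3 inhibitors raise luminescence so EC50 is for signal enhancement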
[16] = tested on: HEK293; experiment: EBV LMP1 TES2 canonical NF-kB signalling blockers – cell-based, HEK293, luciferase, cherry-pick, dose response (AID 588343); assay type: functional; details: Homo sapiens

NAD-dependent protein deacylase sirtuin-5, mitochondrial, sequence (Q9NXA8 whole entry): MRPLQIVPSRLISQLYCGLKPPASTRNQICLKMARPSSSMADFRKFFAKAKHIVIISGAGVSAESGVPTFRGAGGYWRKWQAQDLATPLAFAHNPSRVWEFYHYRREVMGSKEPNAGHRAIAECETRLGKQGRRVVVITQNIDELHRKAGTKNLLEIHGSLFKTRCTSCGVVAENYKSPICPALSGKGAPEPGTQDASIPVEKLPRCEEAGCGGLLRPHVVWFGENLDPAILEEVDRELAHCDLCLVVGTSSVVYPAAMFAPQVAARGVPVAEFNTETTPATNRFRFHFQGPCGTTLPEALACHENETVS
Glyceraldehyde-3-phosphate dehydrogenase, sequence (P04406 whole entry): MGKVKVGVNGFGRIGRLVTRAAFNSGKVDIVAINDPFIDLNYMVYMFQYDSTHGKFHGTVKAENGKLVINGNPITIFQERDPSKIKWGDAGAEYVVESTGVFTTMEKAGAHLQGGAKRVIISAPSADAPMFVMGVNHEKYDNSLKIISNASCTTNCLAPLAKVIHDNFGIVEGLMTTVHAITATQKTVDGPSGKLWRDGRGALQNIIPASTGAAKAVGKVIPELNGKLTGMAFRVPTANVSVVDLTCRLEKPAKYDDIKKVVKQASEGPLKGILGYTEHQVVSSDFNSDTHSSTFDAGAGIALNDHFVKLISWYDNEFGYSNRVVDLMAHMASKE
Mitogen-activated protein kinase 10, sequence (P53779 whole entry): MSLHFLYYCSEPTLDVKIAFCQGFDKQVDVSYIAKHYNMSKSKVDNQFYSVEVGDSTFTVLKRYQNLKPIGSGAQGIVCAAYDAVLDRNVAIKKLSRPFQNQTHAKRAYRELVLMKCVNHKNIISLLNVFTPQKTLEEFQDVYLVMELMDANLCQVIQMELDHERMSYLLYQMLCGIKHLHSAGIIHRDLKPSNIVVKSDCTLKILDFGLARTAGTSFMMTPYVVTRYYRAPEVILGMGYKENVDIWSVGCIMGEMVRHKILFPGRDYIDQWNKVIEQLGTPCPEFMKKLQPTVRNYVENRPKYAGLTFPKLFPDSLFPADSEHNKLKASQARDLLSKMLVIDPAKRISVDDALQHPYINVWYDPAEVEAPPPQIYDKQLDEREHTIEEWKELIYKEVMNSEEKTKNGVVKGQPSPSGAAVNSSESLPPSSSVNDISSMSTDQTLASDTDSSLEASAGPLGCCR
E3 ubiquitin-protein ligase Mdm2, sequence (Q00987 whole entry): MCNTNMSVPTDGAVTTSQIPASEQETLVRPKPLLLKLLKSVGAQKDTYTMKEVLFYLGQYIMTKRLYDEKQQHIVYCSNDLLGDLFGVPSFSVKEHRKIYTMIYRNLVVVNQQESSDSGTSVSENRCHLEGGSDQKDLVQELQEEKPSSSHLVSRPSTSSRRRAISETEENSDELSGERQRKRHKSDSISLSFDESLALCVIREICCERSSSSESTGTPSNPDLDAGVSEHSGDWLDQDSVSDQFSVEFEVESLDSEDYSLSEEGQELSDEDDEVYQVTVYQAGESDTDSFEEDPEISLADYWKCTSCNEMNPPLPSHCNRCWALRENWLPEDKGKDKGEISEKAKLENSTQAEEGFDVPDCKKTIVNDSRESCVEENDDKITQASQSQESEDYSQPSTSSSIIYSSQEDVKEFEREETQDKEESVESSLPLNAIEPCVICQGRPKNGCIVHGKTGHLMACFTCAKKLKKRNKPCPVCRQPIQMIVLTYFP
Large T antigen, sequence (P03070 whole entry): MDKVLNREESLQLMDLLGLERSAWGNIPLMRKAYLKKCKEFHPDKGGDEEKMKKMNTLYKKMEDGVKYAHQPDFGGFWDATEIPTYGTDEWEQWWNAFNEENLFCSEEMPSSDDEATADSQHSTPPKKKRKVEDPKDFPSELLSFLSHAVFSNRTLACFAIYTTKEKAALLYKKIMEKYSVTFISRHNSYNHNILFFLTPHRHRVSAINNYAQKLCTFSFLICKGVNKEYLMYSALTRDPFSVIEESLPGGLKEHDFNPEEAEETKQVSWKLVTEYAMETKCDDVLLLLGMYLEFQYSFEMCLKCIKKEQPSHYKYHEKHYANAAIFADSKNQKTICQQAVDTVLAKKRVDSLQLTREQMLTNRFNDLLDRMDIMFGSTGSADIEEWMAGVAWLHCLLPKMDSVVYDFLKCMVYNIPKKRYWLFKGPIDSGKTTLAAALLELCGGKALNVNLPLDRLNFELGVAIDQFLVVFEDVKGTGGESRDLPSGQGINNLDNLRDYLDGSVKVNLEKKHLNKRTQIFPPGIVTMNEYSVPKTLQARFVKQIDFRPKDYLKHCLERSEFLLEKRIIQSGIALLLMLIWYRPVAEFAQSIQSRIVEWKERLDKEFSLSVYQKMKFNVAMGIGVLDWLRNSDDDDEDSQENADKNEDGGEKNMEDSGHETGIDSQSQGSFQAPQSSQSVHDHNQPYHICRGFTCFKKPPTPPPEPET
Glucose-6-phosphate 1-dehydrogenase, sequence (P11413 whole entry): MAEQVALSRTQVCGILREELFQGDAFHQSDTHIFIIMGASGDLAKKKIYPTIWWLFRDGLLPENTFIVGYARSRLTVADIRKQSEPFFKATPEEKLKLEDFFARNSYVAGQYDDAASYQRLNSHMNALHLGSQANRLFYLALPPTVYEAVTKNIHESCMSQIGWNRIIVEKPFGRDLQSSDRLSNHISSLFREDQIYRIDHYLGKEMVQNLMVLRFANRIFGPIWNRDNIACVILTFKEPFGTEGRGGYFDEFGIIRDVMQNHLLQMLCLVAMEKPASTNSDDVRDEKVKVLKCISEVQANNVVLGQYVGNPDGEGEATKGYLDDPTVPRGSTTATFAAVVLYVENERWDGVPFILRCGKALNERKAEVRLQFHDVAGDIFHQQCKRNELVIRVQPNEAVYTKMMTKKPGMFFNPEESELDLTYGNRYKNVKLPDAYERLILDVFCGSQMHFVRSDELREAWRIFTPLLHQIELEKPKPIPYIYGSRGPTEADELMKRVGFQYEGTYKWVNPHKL

Compound: CN(C)C1=C(Cl)C(=O)N(c2cccc([N+](=O)[O-])c2)C1=O
IC50 [1]: 2.3 µM (active)
IC50 [2]: > 100 µM (not active)
IC50 [3]: > 100 µM (not active)

Compound: CC1Cc2ccccc2N1Cc1cc(=O)n2ccsc2n1 (stereo unspecified)
IC50 [4]: > 100 µM (active)

Compound: CC(=O)N1CCN(c2ccc(NCc3ccc4c(c3)OCO4)cc2)CC1
IC50 [4]: 16.3 µM (active)
IC50 [5]: 12.9 µM (active)

Compound: COCCn1nnnc1C(c1cc2cc(OC)c(OC)cc2[nH]c1=O)N1CCN(c2ccc(O)cc2)CC1 (stereo unspecified)
IC50 [7]: > 80 µM (inactive)
IC50 [4]: > 100 µM (active)
IC50 [8]: 6.67 µM (active)

Compound: Cc1ccc(-n2nnc(-c3cccnc3Cl)n2)cc1
IC50 [9]: 3.18 µM (active)
IC50 [10]: 4.03 µM (active)
IC50 [11]: > 100 µM (inactive)
IC50 [12]: 9.03 µM (active)
IC50 [1]: > 100 µM (not active)
IC50 [3]: > 100 µM (not active)

Compound: Cc1ccc(NC(=O)c2noc3c2CCC3)cc1C
AC50 [14]: 5.83 µM (active)

Compound: CC(C)c1ccc(OCc2cccc(C(=O)N/N=C/c3cccnc3)c2)cc1
EC50 [15]: 0.02 µM (active)
AC50 [16]: 0.98 µM (active)

Compound: O=C(C1Cc2ccccc2CN1S(=O)(=O)c1ccc(F)cc1)N1CCOCC1 (stereo unspecified)
AC50 [6]: 23.6 µM (active)

Next, values leading:

IC50 [1]: 1.67 µM (active)
IC50 [2]: > 100 µM (not active)
IC50 [3]: 0.97 µM (active)
Compound: CCN1CCN(C2=C(Cl)C(=O)N(c3ccc(Cl)c(Cl)c3)C2=O)CC1

AC50 [6]: 2.23 µM (active)
Compound: CCC(C)N1C(=O)N(C)C2NC(=O)NC21 (stereo unspecified)

IC50 [13]: > 31 µM (not active)
Compound: O=c1c2ccccc2nc(-c2ccco2)n1CCCn1ccnc1

IC50 [13]: > 93.1 µM (not active)
Compound: COC(=O)c1ccccc1NC(=O)COC(=O)CSCC(=O)N1CCOCC1

AC50 [6]: > 30 µM (inactive)
Compound: Cc1ccc(C)c(N2CCN(S(=O)(=O)c3ccc4c(c3)CC(=O)N4C)CC2)c1
